In EP4789662A1, “POWDER FOR INHALATION” (Nagase Viita Co., Ltd., priority 2023, dated 2025):

Key:
[1] = tested on: chronic obstructive pulmonary disease (COPD); test: Animal test 1: OVA-induced COPD in rats, lung tissue and BALF infiltrating cells; assay type: in vivo; conditions: OVA-challenge; p.o. 60 mg/kg; BALF 24 h after OVA; Mean±S.E. (n=4)
Procedure: In order to evaluate the pharmacological effect of the mT/PL-RP (Example 1) via intratracheal administration, chronic obstructive pulmonary disease (COPD) was induced in rats, and the effect was compared with the effect via oral administration. Ovalbumin (OVA, Sigma-Aldrich) was intraperitoneally administered three times at seven-day intervals. Next day, the mT/PL-RP (Example 1) (5 mg-PL/kg) was intratracheally administered, or the PL (Comparative Example 2) (60 mg/kg) was orally administered. One hour after the administration, inflammation was caused by intratracheally administering micronized OVA powder to induce COPD. Twenty-four hours after the inflammation caused by OVA administration, the lungs were excised and bronchoalveolar lavage fluid (BALF) was collected. The lung tissue was stained with peroxidase by a standard method and subsequently observed. […] FIG. 8 and Table 6 show the result.

[2] = Animal test 2: amount of PL transferred into blood (pharmacokinetics); assay type: in vivo; conditions: rat, po, rats, p.o. 60 mg/kg, Mean±S.E. (n=4-5)
Procedure: The amount of PL transferred into blood was evaluated in oral administration and intratracheal administration. The blood PL concentrations up to 12 hours after administration were measured over time in a group of rats having undergone intratracheal administration of the mT/PL-RP (Example 1) (5 mg-PL/kg) and in a group of rats having undergone oral administration of the PL (Comparative Example 2) (60 mg/kg). FIG. 9 and Table 7 show the results.

O=C(Nc1cccc2c(=O)cc(-c3nnn[nH]3)oc12)c1ccc(OCCCCc2ccccc2)cc1 [Crystalline PL, pranlukast]
Inflammatory cells in BALF, Eosinophils [1]: 1.5 ± 0.6 × 10^4 cells/mL
Inflammatory cells in BALF, Macrophages [1]: 3.1 ± 1.3 × 10^4 cells/mL
Inflammatory cells in BALF, Neutrophils [1]: 11.5 ± 2.7 × 10^4 cells/mL
Cmax [2]: 250 ± 160 ng/mL
Tmax [2]: 1.6 ± 0.6 h
